Laboratory results as given in patent US20020137929A1, “1 - (3-heterocyclylphenyl) isothiourea, -isourea, -guanidine and -amidine herbicidal agents” (Intellectual Property Department, BASF Aktiengesellschaft, priority 1998, published 2002).

Legend:
[1] = tested on: GALAP (Galium); test: Postemergence herbicidal evaluation; format: in vivo, Galium aparine
Procedure, shortened: (§1)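 Compound is applied as a foliar spray to seedlings about two weeks old, formulated in equal parts acetone and water with 0.5% TWEEN 20 and delivered at 40 psi to give about 0.0156–0.500 kg per hectare. Injury is rated visually 0–9 after four to five weeks.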

[2] = tested on: SAGPY (Arrowhead (Pygmaea)); test: Postemergence weed control under flooded paddy conditions; format: in vivo, Sagittaria pygmaea; conditions: postemergence weeds, 3-4 weeks after treatment
Procedure, shortened: (§2)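 With weeds 3 to 5 cm tall and rice at the 1.5 to 2.5 leaf stage, containers were flooded and water held 1.5 to 3 cm above soil. Compounds in 50/50 v/v aqueous/acetone went into the flood water at about 0.0313 to 0.500 kg/ha a.i. Effects were visually rated 0–9 against controls after three to four weeks in the greenhouse.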

[3] = tested on: CASOB (Sicklepod); test: Postemergence herbicidal evaluation; format: in vivo, Cassia obtusifolia
Procedure, shortened: as §1

[4] = tested on: AMBEL (Ragweed, Common); test: Postemergence herbicidal evaluation; format: in vivo, Ambrosia artemisifolia
Procedure, shortened: as §1

[5] = tested on: GLXMAW (Soybean, Williams); test: Postemergence herbicidal evaluation; format: in vivo, Glycine max, (L.) Merr. cv Williams
Procedure, shortened: as §1

[6] = tested on: SAGPY (Arrowhead (Pygmaea)); test: Preemergence weed control under flooded paddy conditions; format: in vivo, Sagittaria pygmaea; conditions: rated 3-4 weeks after treatment
Procedure, shortened: (§3)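 Seeds or propagules sown in top 0.5 cm of silt loam soil, flooded 1.5 to 3 cm above surface throughout. Compound in 50/50 v/v aqueous/acetone pipetted into flood water at about 0.0313 to 0.500 kg/ha. Visual 0-9 rating versus control after three to four weeks in greenhouse.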

[7] = tested on: ECHORC (Watergrass (Calif.)); test: Postemergence weed control under flooded paddy conditions; format: in vivo, Echinochloa oryzoides; conditions: postemergence weeds, 3-4 weeks after treatment
Procedure, shortened: as §2

[8] = tested on: CYPSE (Flatsedge); test: Preemergence weed control under flooded paddy conditions; format: in vivo, Cyperus serotinus; conditions: rated 3-4 weeks after treatment
Procedure, shortened: as §3

[9] = tested on: MOOVA (Monochoria); test: as above; format: in vivo, Monochoria vaginalis; conditions: rated 3-4 weeks after treatment
Procedure, shortened: as §3

[10] = tested on: ECHORC (Watergrass (Calif.)); test: as above; format: in vivo, Echinochloa oryzoides; conditions: rated 3-4 weeks after treatment
Procedure, shortened: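 Seeds or propagules sown in silt loam kept flooded 1.5-3 cm; compounds in 50/50 acetone/water pipetted into flood water at about 0.0313 to 0.500 kg/ha. Greenhouse; visual 0-9 rating versus untreated control 3-4 weeks after treatment.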

[11] = tested on: TRZAWR (Wheat, Winter, cv Riband); test: Postemergence herbicidal evaluation; format: in vivo, Triticum aestivum
Procedure, shortened: as §1

**Q.** What does the source list for “2-{{2-Chloro-5-[3,6-dihydro-3-methyl-2,6-dioxo-4-(trifluoromethyl)-1(2H)-pyrimidinyl]-4-fluoro-phenyl}imino}-4-oxo-3,5-thiazolidenediacetic acid, 3-ethyl (2-propynyl) ester, (2:1) mixture with di-2-propynyl ester [Compound 58]”?
**A.** Postemergence herbicidal rating GALAP ([1]; Rate 0.0158 kg/ha): 1.0; Postemergence herbicidal rating GALAP ([1]; Rate 0.0315 kg/ha): 3.0; Postemergence herbicidal rating GALAP ([1]; Rate 0.0630 kg/ha): 9.0; Herbicidal rating SAGPY ([2]; rate 0.0313 kg/ha): 0.0; Herbicidal rating SAGPY ([2]; rate 0.0625 kg/ha): 0.0; Herbicidal rating SAGPY ([2]; rate 0.1250 kg/ha): 0.0; Herbicidal rating SAGPY ([2]; rate 0.2500 kg/ha): 4.0; Postemergence herbicidal rating CASOB ([3]; Rate 0.0158 kg/ha): 0.0; Postemergence herbicidal rating CASOB ([3]; Rate 0.0315 kg/ha): 2.0; Postemergence herbicidal rating CASOB ([3]; Rate 0.0630 kg/ha): 3.0; Postemergence herbicidal rating AMBEL ([4]; Rate 0.0158 kg/ha): 9.0; Postemergence herbicidal rating AMBEL ([4]; Rate 0.0315 kg/ha): 9.0; Postemergence herbicidal rating AMBEL ([4]; Rate 0.0630 kg/ha): 9.0; Postemergence herbicidal rating GLXMAW ([5]; Rate 0.0158 kg/ha): 7.0; Postemergence herbicidal rating GLXMAW ([5]; Rate 0.0315 kg/ha): 7.0; Postemergence herbicidal rating GLXMAW ([5]; Rate 0.0630 kg/ha): 8.5; SAGPY herbicidal effect rating ([6]; 0.0313 kg/ha): 0.0; Herbicidal rating SAGPY ([6]; 0.0625 kg/ha): 0.0; Herbicidal rating SAGPY ([6]; 0.1250 kg/ha): 0.0; Herbicidal rating SAGPY ([6]; 0.2500 kg/ha): 4.0; Herbicidal rating ECHORC ([7]; rate 0.0313 kg/ha): 7.0; Herbicidal rating ECHORC ([7]; rate 0.0625 kg/ha): 7.0; Herbicidal rating ECHORC ([7]; rate 0.1250 kg/ha): 7.0; Herbicidal rating ECHORC ([7]; rate 0.2500 kg/ha): 9.0; CYPSE herbicidal effect rating ([8]; 0.0313 kg/ha): 5.0; Herbicidal rating CYPSE ([8]; 0.0625 kg/ha): 5.0; Herbicidal rating CYPSE ([8]; 0.1250 kg/ha): 5.0; Herbicidal rating CYPSE ([8]; 0.2500 kg/ha): 5.0; MOOVA herbicidal effect rating ([9]; 0.0313 kg/ha): 0.0; Herbicidal rating MOOVA ([9]; 0.0625 kg/ha): 0.0; Herbicidal rating MOOVA ([9]; 0.1250 kg/ha): 3.0; Herbicidal rating MOOVA ([9]; 0.2500 kg/ha): 9.0; ECHORC herbicidal effect rating ([10]; 0.0313 kg/ha): 7.0; Herbicidal rating ECHORC ([10]; 0.0625 kg/ha): 7.0; Herbicidal rating ECHORC ([10]; 0.1250 kg/ha): 7.0; Herbicidal rating ECHORC ([10]; 0.2500 kg/ha): 9.0; Postemergence herbicidal rating TRZAWR ([11]; Rate 0.0158 kg/ha): 5.0; Postemergence herbicidal rating TRZAWR ([11]; Rate 0.0315 kg/ha): 5.0; Postemergence herbicidal rating TRZAWR ([11]; Rate 0.0630 kg/ha): 7.5
